From patent US20260159810A1, “MEDIUM COMPOSITION FOR INDUCING DIFFERENTIATION FROM STEM CELLS TO MACROPHAGES AND DIFFERENTIATION METHOD USING SAME” (SUNGKWANG MEDICAL FOUNDATION, priority 2022, published 2026) come the findings set out here.

Molecules are shown by their SMILES.

Assay [1] relates to macrophage-specific markers (MHC 1, MHC 2, CD11b, CD86, CX3CR1, CD16) in hPSC-derived floating cells. The assay can be described thus: Identification of macrophage-specific markers by FACS. It is filed as cell-based, human. The settings on record: medium supplemented with fasudil during differentiation to macrophages. Here is the method: The expression pattern of markers specific to macrophages in the cells obtained in Example 1, Comparative Example 1, and Comparative Example 2 was investigated. Specifically, confirmation was performed using fluorescence-activated cell sorting (FACS, BD FACSCalibur™). Results of cells expressing CD11b, a surface marker of macrophages, and CD86, which is expressed in antigen presenting cells, confirmed through FACS are shown in FIG. 5. Results of cells expressing CX3CR1, which regulates macrophage function in inflammatory sites, and CD16, which is associated with antibody-dependent cell-mediated cytotoxicity (ADCC), confirmed through FACS are shown in FIG. 6.
In general terms: In flow cytometry, cells or beads pass a laser one at a time.

Assay [2] relates to mouse thymus cells. The assay can be described thus: Measurement of phagocytosis: differentiated macrophages co-cultured with fluorescently stained target cells. It is filed as cell-based. The note with it: various E:T ratios; cells positive for both CD11b and target-cell fluorescence; FIG. 7. The method, then:
Phagocytosis of macrophages obtained from Example 1 and Comparative Example 1 was confirmed. Specifically, macrophages (effectors) obtained from Example 1 and Comparative Example 1 were co-cultured with mouse thymus cells (targets, fluorescently stained) at various E:T (effector:target) ratios. After co-culture, cells were collected and phagocytosis of macrophages was measured by measuring cells that simultaneously expressed macrophage-specific markers (CD11b) and fluorescence that had been stained on target cells.

For `O=S(=O)(c1cccc2cnccc12)N1CCCNCC1` [fasudil], in assay [1], the “expression of macrophage-specific markers” value was “increased”. The phagocytosis of macrophages result in assay [2] was “increased”.
